{
  "source": "paper PMC3547486",
  "about": "(ACS Chemical Neuroscience, 2012)",
  "origin": "cited, not measured here",
  "system": "5-HT release",
  "data": [
    {"smiles": "Clc1cccc(N2CCNCC2)c1", "note": "[mCPP, m-chlorophenylpiperazine]", "values": [
      {"measurement": "5-HT releasing activity (in words)", "result": "potent 5-HT releaser"}
    ]}
  ]
}
